How the values were obtained:
[1] = target: T1, Avi-KRAS G12D (1-169) GppNHp/RAF1 RBD-3xFLAG (52-151) (Homo sapiens, UniProt P01116, G12D); assay: Raf1-KRAS G12D-GppNHP disruption HTRF assay (Biological Example 1); assay type: binding; conditions: KRAS G12D-GppNHp/RAF1 RBD HTRF
T1 construct: Avi-KRAS G12D (1-169)
How it was run: (§1)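 Read-out is HTRF signal of the KRAS–RAF1 RBD complex, reported as percentage of activity relative to DMSO (100%). Protein mix and detection reagents each incubated 1 h at room temperature with 700 rpm shaking. Buffer: 50 mM Tris pH 7.5, 100 mM NaCl, 5 mM MgCl2, 0.1% BSA, 0.01% Tween, 10% DMSO.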

[2] = target: T2, Avi-KRAS G12R (1-169) GppNHp/RAF1 RBD-3xFLAG (52-151) (Homo sapiens, UniProt P01116, G12R); assay: Raf1-KRAS G12R-GppNHP disruption HTRF assay (Biological Example 1); assay type: binding; conditions: KRAS G12R-GppNHp/RAF1 RBD HTRF
T2 construct: Avi-KRAS G12R (1-169)
T2 sequence (P01116 1-169 isoform P01116-2 G12R): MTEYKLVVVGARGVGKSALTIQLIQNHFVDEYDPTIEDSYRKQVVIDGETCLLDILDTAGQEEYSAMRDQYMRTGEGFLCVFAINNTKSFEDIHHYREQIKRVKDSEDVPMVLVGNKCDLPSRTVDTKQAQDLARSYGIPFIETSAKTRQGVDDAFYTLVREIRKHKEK
How it was run: as §1

[3] = target: T3, Avi-KRAS G12V (1-169) GppNHp/RAF1 RBD-3xFLAG (52-151) (Homo sapiens, UniProt P01116, G12V); assay: Raf1-KRAS G12V-GppNHP disruption HTRF assay (Biological Example 1); assay type: binding; conditions: KRAS G12V-GppNHp/RAF1 RBD HTRF
T3 construct: Avi-KRAS G12V (1-169)
T3 sequence (P01116 1-169 isoform P01116-2 G12V): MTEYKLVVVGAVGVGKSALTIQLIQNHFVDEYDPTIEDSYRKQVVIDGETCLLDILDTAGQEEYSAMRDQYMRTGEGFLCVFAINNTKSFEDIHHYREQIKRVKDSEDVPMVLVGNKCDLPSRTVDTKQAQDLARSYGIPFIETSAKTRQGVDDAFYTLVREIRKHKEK
How it was run: as §1

SW620 cells (KRAS G12V) = assay: Cell-based pERK HTRF assay in SW620 cell (Biological Example 4)
How it was run: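 SW620 (KRAS G12V) cells seeded at 3×10^4/well in RPMI, 10% FBS, then treated next day for 4 h with a 9-point half-log series from 1 μM top (0.25% DMSO). Lysates analyzed for pERK by HTRF (Eu cryptate/d2 antibodies, 4–24 h at room temperature), excitation 320 nm, emission 615 nm.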

[4] = target: T4, Avi-KRAS G12D (2-169) GTP/RAF1 RBD-3xFLAG (51-131) (Homo sapiens, UniProt P01116, G12D); assay: Raf1-KRAS G12D-GTP disruption HTRF assay (Biological Example 3); assay type: binding; conditions: KRAS G12D, GTP-loaded
T4 construct: Avi-KRAS G12D (2-169)
T4 sequence (P01116 2-169 isoform P01116-2 G12D): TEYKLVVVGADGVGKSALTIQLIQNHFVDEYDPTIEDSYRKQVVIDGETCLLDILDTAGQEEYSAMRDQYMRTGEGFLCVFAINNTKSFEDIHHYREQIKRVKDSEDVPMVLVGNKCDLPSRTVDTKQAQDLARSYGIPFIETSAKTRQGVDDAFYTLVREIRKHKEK
How it was run: (§2)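 Each KRAS-GTP/RAF1 RBD complex at 50 nM, with 75 nM 3xFLAG-RAF1 RBD (51-131)-Avi, in 50 mM Tris pH 7.5, 100 mM NaCl, 5 mM MgCl2, 0.1% BSA, 0.01% Tween 20, 10% DMSO. Compounds titrated from 30 μM, 10-point 3x series; 1 h at room temperature with shaking. HTRF read, activity as percent of DMSO.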

[5] = target: T5, Avi-KRAS G12V (2-169) GTP/RAF1 RBD-3xFLAG (51-131) (Homo sapiens, UniProt P01116, G12V); assay: Raf1-KRAS G12V-GTP disruption HTRF assay (Biological Example 3); assay type: binding; conditions: KRAS G12V, GTP-loaded
T5 construct: Avi-KRAS G12V (2-169)
T5 sequence (P01116 2-169 isoform P01116-2 G12V): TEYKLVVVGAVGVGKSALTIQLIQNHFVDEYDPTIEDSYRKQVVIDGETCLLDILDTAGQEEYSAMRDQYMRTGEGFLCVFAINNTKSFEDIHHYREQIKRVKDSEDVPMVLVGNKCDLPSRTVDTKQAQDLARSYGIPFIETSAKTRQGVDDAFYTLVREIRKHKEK
How it was run: as §2

[6] = target: T6, Avi-KRAS WT (2-169) GTP/RAF1 RBD-3xFLAG (51-131) (Homo sapiens, UniProt P01116); assay: Raf1-KRAS WT-GTP disruption HTRF assay (Biological Example 3); assay type: binding; conditions: KRAS WT, GTP-loaded
T6 construct: Avi-KRAS WT (2-169)
T6 sequence (P01116 2-169 isoform P01116-2): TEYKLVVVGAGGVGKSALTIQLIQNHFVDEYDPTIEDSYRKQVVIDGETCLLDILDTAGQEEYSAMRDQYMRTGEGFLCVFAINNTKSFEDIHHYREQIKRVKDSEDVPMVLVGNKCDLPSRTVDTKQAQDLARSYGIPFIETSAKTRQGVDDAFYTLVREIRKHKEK
How it was run: as §2

[7] = SW620 (KRAS G12V) cells, pERK HTRF
[8] = Homo sapiens, SW-620, SW620 (KRAS G12V) cells
[9] = Homo sapiens, SW-620, SW620 (KRAS G12V) cells, pERK HTRF

T1 sequence (P01116 1-169 isoform P01116-2 G12D): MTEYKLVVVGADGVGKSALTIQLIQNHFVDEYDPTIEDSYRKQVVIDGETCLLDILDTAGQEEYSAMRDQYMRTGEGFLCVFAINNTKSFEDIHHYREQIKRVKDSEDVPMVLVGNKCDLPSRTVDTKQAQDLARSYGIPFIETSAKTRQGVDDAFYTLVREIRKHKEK

Row | Compound | IC50 [1] | IC50 [2] | IC50 [3] | IC50 (SW620 cells (KRAS G12V); [7]) | IC50 [4] | IC50 [5] | IC50 [6] | IC50 (SW620 cells (KRAS G12V); [8]) | IC50 (SW620 cells (KRAS G12V); [9]) | IC50 (SW620 cells (KRAS G12V); SW620 (KRAS G12V) cells)
1 | CCN(c1nc(OC[C@@]23CCCN2C[C@H](F)C3)nc2c(F)c(-c3ccc(F)c4sc(N)c(C#N)c34)c(C(F)(F)F)cc12)[C@H]1CCN(C(=O)C(C)C)C1 (atropisomer, axis not shown) [Compound 468] | > 10 µM | > 10 µM | > 10 µM | > 1 µM |  |  |  |  |  | 
2 | CCN(c1nc(OC[C@@]23CCCN2C[C@H](F)C3)nc2c(F)c(-c3ccc(F)c4sc(N)c(C#N)c34)c(C(F)(F)F)cc12)[C@H]1CCS(=O)(=O)C1 (atropisomer, axis not shown) [Compound 492] | < 0.1 µM | < 0.1 µM | 0.1 to 1 µM | < 0.1 µM |  |  |  |  |  | 
3 | CN(C)C(=O)[C@@H]1CC[C@@H](N(C)c2nc(OC[C@@]34CCCN3C[C@H](F)C4)nc3c(F)c(-c4ccc(F)c5sc(N)c(C#N)c45)c(C(F)(F)F)cc23)C1 (atropisomer, axis not shown) [Compound 512] | 0.1 to 1 µM | 0.1 to 1 µM | 0.1 to 1 µM |  | 0.1 to 1 µM | 1 to 10 µM | 0.1 to 1 µM | < 0.1 µM | < 0.1 µM | 
4 | CCN(c1nc(OC[C@@]23CCCN2C[C@H](F)C3)nc2c(F)c(-c3ccc(F)c4sc(N)c(C#N)c34)c(C(F)(F)F)cc12)[C@H]1C[C@@H]2COC(=O)N2C1 (atropisomer, axis not shown) [Compound 519] | < 0.1 µM | < 0.1 µM | 0.1 to 1 µM |  | ≤ 0.1 µM | 0.1 to 1 µM | 0.1 to 1 µM | < 0.1 µM | < 0.1 µM | 
5 | CCC(=O)N1CC[C@@H](N(CC)c2nc(OC[C@@]34CCCN3C[C@H](F)C4)nc3c(F)c(-c4ccc(F)c5sc(N)c(C#N)c45)c(C(F)(F)F)cc23)[C@H]1C (atropisomer, axis not shown) [Compound 523] | < 0.1 µM | < 0.1 µM | < 0.1 µM | < 0.1 µM | ≤ 0.1 µM | ≤ 0.1 µM | ≤ 0.1 µM | < 0.1 µM |  | 
6 | CCN(c1nc(OC[C@@]23CCCN2C[C@H](F)C3)nc2c(F)c(-c3ccc(F)c4sc(N)c(C#N)c34)c(C(F)(F)F)cc12)[C@@H]1CCN(C(=O)C2CC2)[C@@H]1C (atropisomer, axis not shown) [Compound 524] | < 0.1 µM | < 0.1 µM | < 0.1 µM | < 0.1 µM | ≤ 0.1 µM | ≤ 0.1 µM | ≤ 0.1 µM | < 0.1 µM |  | 
7 | CCN(c1nc(OC[C@@]23CCCN2C[C@H](F)C3)nc2c(F)c(-c3ccc(F)c4sc(N)c(C#N)c34)c(C(F)(F)F)cc12)[C@@H]1C[C@@H](C)N(C(C)=O)C1 (atropisomer, axis not shown) [Compound 527] | 0.1 to 1 µM | 0.1 to 1 µM | 0.1 to 1 µM |  | 0.1 to 1 µM | 0.1 to 1 µM | 0.1 to 1 µM | < 0.1 µM | < 0.1 µM | 
8 | CCN(c1nc(OC[C@@]23CCCN2C[C@H](F)C3)nc2c(F)c(-c3ccc(F)c4sc(N)c(C#N)c34)c(C(F)(F)F)cc12)[C@@H]1C[C@H]2CCC(=O)N2C1 (atropisomer, axis not shown) [Compound 532] | 0.1 to 1 µM | 0.1 to 1 µM | 0.1 to 1 µM |  | 0.1 to 1 µM | 0.1 to 1 µM | 0.1 to 1 µM | < 0.1 µM | < 0.1 µM | 
9 | CCC(=O)N1C[C@H](N(CC)c2nc(OC[C@@]34CCCN3C[C@H](F)C4)nc3c(F)c(-c4ccc(F)c5sc(N)c(C#N)c45)c(C(F)(F)F)cc23)C[C@@H]1C (atropisomer, axis not shown) [Compound 533] | 0.1 to 1 µM | 0.1 to 1 µM | 0.1 to 1 µM |  | 0.1 to 1 µM | 0.1 to 1 µM | 0.1 to 1 µM | < 0.1 µM | < 0.1 µM | 
10 | CCN(c1nc(OC[C@@]23CCCN2C[C@H](F)C3)nc2c(F)c(-c3ccc(F)c4sc(N)c(C#N)c34)c(C(F)(F)F)cc12)[C@@H]1C[C@H](C)N(C(C)=O)C1 (atropisomer, axis not shown) [Compound 534] | 0.1 to 1 µM | 0.1 to 1 µM | 0.1 to 1 µM |  | 0.1 to 1 µM | 0.1 to 1 µM | 0.1 to 1 µM | < 0.1 µM | < 0.1 µM | 
11 | CCN(c1nc(OC[C@@]23CCCN2C[C@H](F)C3)nc2c(F)c(-c3ccc(F)c4sc(N)c(C#N)c34)c(C(F)(F)F)cc12)[C@H]1C[C@H](C)N(C(=O)COC)C1 (atropisomer, axis not shown) [Compound 538] | < 0.1 µM | < 0.1 µM | < 0.1 µM |  | ≤ 0.1 µM | ≤ 0.1 µM | 0.1 to 1 µM | < 0.1 µM | < 0.1 µM | 
12 | CCN(c1nc(OC[C@@]23CCCN2C[C@H](F)C3)nc2c(F)c(-c3ccc(F)c4sc(N)c(C#N)c34)c(C(F)(F)F)cc12)[C@H]1C[C@H](C)N(C(=O)C2COC2)C1 (atropisomer, axis not shown) [Compound 539] | < 0.1 µM | < 0.1 µM | < 0.1 µM |  | 0.1 to 1 µM | 0.1 to 1 µM | 0.1 to 1 µM | < 0.1 µM | < 0.1 µM | 
13 | CCN(c1nc(OC[C@@]23CCCN2C[C@H](F)C3)nc2c(F)c(-c3ccc(F)c4sc(N)c(C#N)c34)c(C(F)(F)F)cc12)[C@H]1CCN(C(=O)N(C)C)C1 (atropisomer, axis not shown) [Compound 540, (3S)-3-[[7-(2-amino-3-cyano-7-fluoro-benzothiophen-4-yl)-8-fluoro-2-[[(2R,8S)-2-fluoro-1,2,3,5,6,7-hexahydropyrrolizin-8-yl]methoxy]-6-(trifluoromethyl)quinazolin-4-yl]-ethyl-amino]-N,N-dimethyl-pyrrolidine-1-carboxamide] |  |  |  |  | ≤ 0.1 µM | ≤ 0.1 µM | 0.1 to 1 µM | < 0.1 µM |  | 
14 | CCN(c1nc(OC[C@@]23CCCN2C[C@H](F)C3)nc2c(F)c(-c3ccc(F)c4sc(N)c(C#N)c34)c(C(F)(F)F)cc12)[C@H]1CCN(C(=O)OC)C1 (atropisomer, axis not shown) [Compound 541, methyl(3S)-3-[[7-(2-amino-3-cyano-7-fluoro-benzothiophen-4-yl)-8-fluoro-2-[[(2R,8S)-2-fluoro-1,2,3,5,6,7-hexahydropyrrolizin-8-yl]methoxy]-6-(trifluoromethyl)quinazolin-4-yl]-ethyl-amino]pyrrolidine-1-carboxylate] | < 0.1 µM | < 0.1 µM | < 0.1 µM | < 0.1 µM | ≤ 0.1 µM | ≤ 0.1 µM | 0.1 to 1 µM |  |  | < 0.1 µM
15 | CCOC(=O)N1CC[C@H](N(CC)c2nc(OC[C@@]34CCCN3C[C@H](F)C4)nc3c(F)c(-c4ccc(F)c5sc(N)c(C#N)c45)c(C(F)(F)F)cc23)C1 [Compound 467] | < 0.1 µM | < 0.1 µM | < 0.1 µM |  |  |  |  |  | < 0.1 µM | 
16 | CCN(c1nc(OC[C@@]23CCCN2C[C@H](F)C3)nc2c(F)c(-c3ccc(F)c4sc(N)c(C#N)c34)c(C(F)(F)F)cc12)[C@H]1C[C@H](C)N(C(=O)C2CC2)C1 [Compound 470] | < 0.1 µM | < 0.1 µM | < 0.1 µM |  |  |  |  |  | < 0.1 µM | 
17 | Cc1cc2n(n1)CCN(c1nc(OCC34CCCN3CC(F)C4)nc3c(F)c(-c4ccc(F)c5sc(N)c(C#N)c45)c(C(F)(F)F)cc13)C2 (centres unmarked) [Compound 484] | 1 to 10 µM | 1 to 10 µM | 1 to 10 µM |  |  |  |  |  | < 0.1 µM | 
18 | N#Cc1c(N)sc2c(F)ccc(-c3c(C(F)(F)F)cc4c(N5CCn6nc(N7CCOCC7)cc6C5)nc(OC[C@@]56CCCN5C[C@H](F)C6)nc4c3F)c12 [Compound 485] | 1 to 10 µM | 1 to 10 µM | 1 to 10 µM |  |  |  |  |  | < 0.1 µM | 

Source: US20260042764A1, “COMPOSITIONS AND METHODS FOR INHIBITION OF KRAS” (TheRas, Inc., priority 2022, published 2026)
